Data as given in patent publication US8637079B2, “Solid preparation comprising alogliptin and pioglitazone” (Takeda Pharmaceutical Company Limited, priority 2007, dated 2014).

Experiment: Chemical stability on storage: amount of benzoic acid remaining as compound (IA)
Assay type: physicochemical
Procedure: Compound (IA) (50 mg) of Comparative Example 1, the mixture (99.59 mg) of Comparative Example 2, and tablets of Example 1 and Example 2 were preserved in glass bottles at 40° C., 75% RH with opened cap or at 60° C. with closed cap and the amount of benzoic acid remaining as compound (IA) was measured to evaluate the chemical stability.

SMILES: Cn1c(=O)cc(N2CCC[C@@H](N)C2)n(Cc2ccccc2C#N)c1=O [Comparative Example 1, 2-[[6-[(3R)-3-amino-1-piperidinyl]-3,4-dihydro-3-methyl-2,4-dioxo-1(2H)-pyrimidinyl]methyl]-benzonitrile]
- residual benzoic acid (40° C., 75% RH, opened bottle, 2 week storage product): 99.2%
- residual benzoic acid (60° C., closed bottle, 2 week storage product): 99.0%
- residual benzoic acid (Initial): 99.8%
